Where no end group is shown, it is not given here.
What was measured:
단핵성 근육모세포 (수반 세포) = assay: Biological activity: induction of mononucleated myoblast replication (Alamar Blue); type: cell-based; parameters: key to biological activity score (scale 0 to 3): 0: 6시간에서 측정가능한 세포 수 증가 없음; 1: 4시간에서 유의한 세포 수 증가; 2시간에서 유의한 세포 수 증가; 3: 1시간에서 유의한 세포 수 증가; conditions: cell number by Alamar Blue
C2C12 근육 세포 [1] = assay: C2C12 cell proliferation assay (BrdU incorporation); type: cell-based, mouse; conditions: 0.1, 1, 10 and 100 ng/ml; 500 cells/well; 24 h stimulation, 5 h BrdU
C2C12 근육 세포 [2] = assay: C2C12 cell proliferation assay (Alamar Blue); type: cell-based, mouse; conditions: 2, 5, 50 and 100 ng/ml; 2000 cells/well; medium with IGF-I 2 ng/ml; 36 h; vs medium-only control
mdx 마우스의 근이영양성 근육 = assay: Tetanic force of dystrophic muscle after intramuscular injection in mdx mice; type: in vivo, mouse; conditions: i.m. twice weekly for 3 weeks
경색된 양 심장 = assay: Cardioprotection after myocardial infarction in sheep (ejection fraction by echocardiography); type: in vivo; conditions: intracoronary injection 15 min after infarction, day 6 vs day before procedure
래트 기관형적 해마 배양물 = assay: In vitro neuroprotection against TBH oxidative stress in organotypic hippocampal slices (PI staining); type: cell-based, Wistar rat; conditions: 100 ng/ml
뇌 허혈의 게르빌루스쥐 모델 = assay: Neuroprotection in gerbil model of brain ischaemia (surviving CA1 neurons); type: in vivo, Mongolian gerbil; conditions: 25 µg injection, 7 days after ischaemic insult
정상 두개안면 (교근) 초대 배양물 = assay: Myogenic progenitor (desmin-positive) cell proliferation, normal craniofacial muscle primary culture; type: cell-based, human; conditions: normal craniofacial (masseter); peptide 10 ng/ml alone; untreated 49.8±2.4%
정상 하지 (사두근) 초대 배양물 = assay: Myogenic progenitor (desmin-positive) cell proliferation, normal limb muscle primary culture; type: cell-based, human; conditions: normal limb (quadriceps); peptide 10 ng/ml alone; untreated 38.4±2.5%
[3] = test system: 선천성 근이영양증 (CMD)에서 유래된 초대 배양물; assay: Myogenic progenitor (desmin-positive) cell proliferation, CMD muscle primary culture; type: cell-based, human; conditions: peptide 10 ng/ml alone, untreated 10.4±1.7%
ALS 사지 = assay: Myogenic progenitor (desmin-positive) cell proliferation, ALS muscle primary culture; type: cell-based, human; conditions: peptide 10 ng/ml alone, untreated 4.8±1.1%
FSHD 사지 = assay: Myogenic progenitor (desmin-positive) cell proliferation, FSHD muscle primary culture; type: cell-based, human; conditions: peptide 10 ng/ml alone, untreated 11.7±1.3%
초대 인간 근육 세포 배양물 = assay: Creatine phosphokinase (CPK) assay of myogenic differentiation / myotube formation; type: cell-based, human; conditions: peptide alone in differentiation medium, 48 h; IGF-I at 10 ng/ml
HSMM 세포 = assay: Human primary cell (HSMM) proliferation assay (BrdU incorporation); type: cell-based; conditions: 48 h; A5 at doses up to 10 ng/ml (P < 0.1); IGF-I alone at any dose

## YQPPSTNKNTKSQRRKGSTFEEHK [펩티드 1, human Ec peptide variant with His instead of Arg at penultimate position; no PEG, no L-D conversion]
단핵성 근육모세포 (수반 세포)
  biological activity (in words): 활성을 거의 또는 전혀 나타내지 않았다

## YQPPSTNKNTKSQARKGSTFEEHK [펩티드 5]
단핵성 근육모세포 (수반 세포)
  biological activity score (scale 0 to 3): 2

## YQPPSTNKNTKSQARKGSTFEE [짧은 펩티드 1, Arg14→Ala, two C-terminal amino acids removed]
단핵성 근육모세포 (수반 세포)
  biological activity score (scale 0 to 3): 1

## YQPPSTNKNTKSQARKGSTF [짧은 펩티드 2, Arg14→Ala, four C-terminal amino acids removed]
단핵성 근육모세포 (수반 세포)
  biological activity score (scale 0 to 3): 0

## GSTFEEHK [펩티드 A8]
C2C12 근육 세포 [1]
  induction of C2C12 cell proliferation (BrdU incorporation): 세포 증식을 유도하였다

## GSTFEEHK [DMGF]
C2C12 근육 세포 [2]
  induction of C2C12 cell proliferation (Alamar Blue fluorescence): 세포 증식을 유도하였다

## PSTNKNTKSQARKGSTFEEHK [짧은 펩티드 3, Arg14→Ala, three N-terminal amino acids removed]
단핵성 근육모세포 (수반 세포)
  biological activity score (scale 0 to 3): 0

## IGF-I: IGF-I receptor binding domain encoded by exons 3 and 4, about 70 amino acids; from PeproTech or Sigma-Aldrich
Mdx 마우스의 근이영양성 근육
  increase in tetanic force of dystrophic muscle: ~5 %
경색된 양 심장
  effect on ejection fraction and percentage of viable myocardium after MI: 더욱 작은 효과
래트 기관형적 해마 배양물; TBH 3 h, CA1 region, 24 h
  protection against TBH-induced cell death: 72 %
래트 기관형적 해마 배양물; cell death assessed 24 h and 48 h after start
  time over which the neuroprotective effect was marked: ≤ 24 시간
뇌 허혈의 게르빌루스쥐 모델
  surviving CA1 neurons as % of control neuron number, side not stated: 15.8 %
뇌 허혈의 게르빌루스쥐 모델; n=5
  surviving CA1 neurons, side not stated: 19.2 ± 7.3 개
정상 두개안면 (교근) 초대 배양물
  desmin-positive cells as % of total (DAPI-positive) cells: 58.4±4.2 %
정상 하지 (사두근) 초대 배양물
  desmin-positive cells as % of total (DAPI-positive) cells: 47.1±3.5 %
[3]
  desmin-positive cells as % of total (DAPI-positive) cells: 13.2±1.7 %
ALS 사지
  desmin-positive cells as % of total (DAPI-positive) cells: 4.7±1.4 %
FSHD 사지
  desmin-positive cells as % of total (DAPI-positive) cells: 14.1±1.6 %
초대 인간 근육 세포 배양물
  effect on primary myoblast differentiation and myotube formation (CPK): 근관 형성을 명백하게 자극한다
C2C12 근육 세포 [2]
  induction of C2C12 cell proliferation (Alamar Blue fluorescence): 통계학적으로 상이하였다
HSMM 세포
  effect on HSMM proliferation (BrdU incorporation), used alone: 유의한 효과가 없었다

## GSTFEERK [펩티드 A2]
C2C12 근육 세포 [1]
  induction of C2C12 cell proliferation (BrdU incorporation): 세포 증식을 유도하였다

## TNKNTKSQARKGSTFEEHK [짧은 펩티드 4, Arg14→Ala, five N-terminal amino acids removed]
단핵성 근육모세포 (수반 세포)
  biological activity score (scale 0 to 3): 0

## YQPPSTNKNTKSQAAKGSTFEEHK [펩티드 6]
단핵성 근육모세포 (수반 세포)
  biological activity score (scale 0 to 3): 0

## YQPPATNKNTKSQRRKGSTFEEHK [펩티드 2]
단핵성 근육모세포 (수반 세포)
  biological activity score (scale 0 to 3): 1

## YQPPSTNKNTKSQRRKGATFEEHK [펩티드 4]
단핵성 근육모세포 (수반 세포)
  biological activity score (scale 0 to 3): 2

## YQPPSTNKNTKAQRRKGSTFEEHK [펩티드 3]
단핵성 근육모세포 (수반 세포)
  biological activity score (scale 0 to 3): 3

Source: patent publication KR20080021588A, “메카노 성장 인자 펩티드 및 이들의 용도” (유씨엘 비즈니스 피엘씨, priority 2005, dated 2006)
